Bridges are numbered along the chain shown (N, C = ends). Where no end group is shown, it is not given here.
Key:
guinea-pig heart = assay: Left ventricular systolic pressure in isolated Langendorff-perfused heart; conditions: Cavia porcellus; for Emax at 10 µM / Emax at 30 µM: read-out: maximum effect (% change from baseline) on left ventricular systolic pressure; for EC50: concentration range 0.3-30 μM
Source text: Experiment 2. The effects on the left ventricular pressure derivatives
Guinea-pigs of either sex weighing 300-400 g were used in the study. After the guinea-pig was sacrificed by a blow on the skull and decapitated the heart was rapidly excised. The heart was then rinsed in cold oxygenated perfusion buffer. A cannula was inserted into the aorta and secured with a ligature. Retrograde perfusion began as soon as the heart was placed in a thermostatically controlled moist chamber of the Langendorff apparatus. Modified Tyrode solution (37° C.), equilibrated in a thermostatically controlled bulb oxygenator with carbogen (95% O2 and 5% CO2) was used as a perfusion buffer. The composition of the Tyrode solution was (in mM): NaCl 135; MgCl2×6H2O 1; KCl 5; CaCl2×2H2O 2; NaHCO3 15; Na2HPO4×2H2O 1; glucose 10; pH 7.3-7.4. The experiments were carried out under constant pressure condition (50 mmHg). After a short prestabilization (10 min) a latex balloon (size 4) was carefully placed into the left ventricle through the left pulmonary vein and the left atrium. The latex balloon was attached to a stainless-steel cannula coupled with a pressure transducer. The latex balloon, the cannula and the chamber of the pressure transducer were filled with ethylene glycol/water (1:1) mixture avoiding any air-bubble. The isovolumetric left ventricular pressure was recorded through the pressure transducer. At the beginning of the experiment, the volume of the balloon was adjusted to obtain a diastolic pressure of approximately 5 mmHg. Before starting the experiment, the heart was allowed to stabilise further for 30-50 min with vehicle (0.1% DMSO) in the perfusion buffer.
After 15 min baseline recording various concentrations of the test compound were added to the perfusion buffer at 15 min intervals. The concentration range of 0.3-30 μM was tested. The vehicle concentration (0.1% DMSO) was kept constant throughout the experiment.

SR Ca^2+-ATPase = assay: Ca2+ uptake into SR vesicles prepared from fast skeletal muscle (psoas m.), which lack phospholamban (fluo-3); assay type: biochemical, guinea pig; conditions: 0.04 μM free calcium
Source text: (§1) Experiment 1. Effect on calcium uptake into the SR vesicles prepared from cardiac and fast skeletal muscle
(§2) Since phospholamban represses both the rates of relaxation and contraction in the mammalian heart through its inhibitory effects on the cardiac SR Ca^2+-ATPase, a compound relieving these effects is potentially useful in the treatment of heart failure.
(§3) Guinea pigs (10-12) were decapited. Their hearts or the psoas muscles were excised, washed in ice-cold 0.9% NaCl and cut into pieces in a buffer containing 20 mM Tris-maleate, 0.3 M sucrose, pH 7.0. Thereafter tissue pieces were homogenized with Polytron and further with Potter (10 strokes). The homogenate was centrifugated at 1000 g for 15 min at 4° C. The supernatant was collected and the pellet was resuspended into 5 ml of the buffer (20 mM Tris-maleate, 0.3 M sucrose, pH 7.0) and recentrifugated at 1000 g for 10 min at 4° C. The obtained supernatant was combined with the earlier collected supernatant and centrifugated once again at 10000 g for 20 min at 4° C. The final supernatant was filtered into a bottle equipped with a magnetic stirrer. KCl was added to the filtered supernatant to achieve the final concentration of 0.6 M (at 4° C.). The obtained solution was centrifugated at 100 000 g for 60 min at 4° C. The pellet was suspended in 5 ml of the buffer containing 20 mM Tris-maleate, 0.3 M sucrose, pH 7.0 and centrifugated at 100 000 g for 60 min at 4° C. The obtained pellet was suspended in 5 ml of buffer containing 20 mM Tris-maleate, 0.3 M sucrose, 0.1 M KCl, pH 7.0 and stored at −80° C. until use. The protein concentration was also measured in order to standardise the separately prepared vesicle preparations.
(§4) In the calcium uptake assay, the fluorescent indicator, fluo-3 was used to detect the decrease of the extravesicular Ca^2+-concentration, when the SR Ca^2+ATPase was transferring Ca^2+ from the extravesicular space into the SR-vesicles.
(§5) The SR-vesicles obtained above (50 μg protein/ml) were pre-incubated with or without the test compound at 37° C. for 5 min in the assay buffer containing 40 mM imidazole, 95 mM KCl, 5 mM NaN3, 5 mM MgCl2, 0.5 mM EGTA, 5 mM potassium oxalate, 2 μM ruthenium red, 5 μM fluo-3, pH 7.0. The free calcium was adjusted to 0.1 μM or to 0.04 μM by CaCl2. The reaction was initiated by adding ATP (5 mM). The final reaction volume was 1.5 ml. The fluorescence of reaction mixture was measured for 3 min by using the excitation and emission wavelengths of 510 nm and 530 nm, respectively.

phospholamban = assay: Ca2+ uptake into SR vesicles prepared from cardiac tissue (fluo-3); assay type: biochemical, guinea pig; conditions: 0.1 μM free calcium
Source text: as §1, §2, §3, §4, §5

PLB = biological target: T1, PLB (Homo sapiens, UniProt P26678); assay: Peptide screen for binding to PLB
T1 sequence (P26678 1-52): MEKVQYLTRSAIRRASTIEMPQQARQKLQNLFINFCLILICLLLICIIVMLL
Source text: In order to find a lead molecule which would interact with PLB a series of peptides were screened. […] It was concluded that the cyclic peptide of formula (pI) binds to unphosphorylated PLB and prevents the inhibition exerted by PLB on SERCA—2 thus acting as a PLB deactivator. The cyclic peptide (pI) has the structure: [drawing 1]

Compound	Emax at 10 µM (guinea-pig heart) [%]	EC50 (guinea-pig heart) [µM]	The stimulation (%) of Ca^2+ uptake, A (ventricular myocardium vesicles) (phospholamban; 100 μM compound) [%]	Emax at 30 µM (guinea-pig heart) [%]	other results
Cc1c(CCc2ccccc2)c(=O)oc2cc(OCc3nn[nH]n3)cc(OCc3nn[nH]n3)c12 [Example 7c, 5,7-Bis[(1H-tetrazol-5-yl)methoxy]-4-methyl-3-(2-phenylethyl)-2H-1benzopyran-2-one]	29	2.5	5	–	The stimulation (%) of Ca^2+ uptake, B (fast skeletal muscle vesicles) (SR Ca^2+-ATPase; 100 μM compound): −17%
Cc1c(Cc2ccccc2)c(=O)oc2cc(OCc3noc(=O)[nH]3)cc(OCc3noc(=O)[nH]3)c12 [Example 3c, 3-Benzyl-5,7-bis[(2,5-dihydro-5-oxo-4H-1,2,4-oxadiazol-3-yl)-methoxy]-4-methyl-2H-1-benzopyran-2-one]	63	4	–	–	The stimulation (%) of Ca^2+ uptake, B (fast skeletal muscle vesicles) (SR Ca^2+-ATPase; 20 μM compound): 0%; The stimulation (%) of Ca^2+ uptake, A (ventricular myocardium vesicles) (phospholamban; 20 μM compound): 51%
O=c1cc(-c2ccccc2)c2c(OCc3nn[nH]n3)cc(OCc3nn[nH]n3)cc2o1 [Example 5c, 5,7-Bis[(1H-tetrazol-5-yl)methoxy]-4-phenyl-2H-1-benzopyran-2-one]	–	–	–	14	–
Cc1c(Cc2ccccc2F)c(=O)n(Cc2ccccc2)c2cc(OCc3nnn[nH]3)cc(OCc3nnn[nH]3)c12 [Example 19e]	–	6	–	39	–
Cc1c(Cc2ccccc2)c(=O)n(Cc2ccccc2)c2cc(OCC(=O)NO)cc(OCC(=O)NO)c12 [Example 23, 5,7-Bis(hydroxyaminocarbonylmethoxy)-1,3-dibenzyl-4-methyl-2(1H)-quinolinone]	–	–	–	–	The stimulation (%) of Ca^2+ uptake, A (ventricular myocardium vesicles) (phospholamban; 5 μM compound): 20%
O=c1oc2cc(OCc3nn[nH]n3)cc(OCc3nn[nH]n3)c2c2c1C(c1ccccc1)CCC2 (centres unmarked) [Example 2c, 7,8,9,10-Tetrahydro-1,3-bis[(1H-tetrazol-5-yl)methoxy]-7-phenyl-6H-dibenzo[b,d]pyran-6-one]	–	–	26	–	The stimulation (%) of Ca^2+ uptake, B (fast skeletal muscle vesicles) (SR Ca^2+-ATPase; 100 μM compound): −1%
Cc1c(Cc2ccccc2)c(=O)n(Cc2ccccc2)c2cc(OCC(N)=O)cc(OCC(N)=O)c12 [Example 21, 5,7-Bis(aminocarbonylmethoxy)-1,3-dibenzyl-4-methyl-2(1H)-quinolinone]	–	–	11	–	–
Cc1c(Cc2ccccc2)c(=O)oc2cc(OC(C)c3nn[nH]n3)cc(OC(C)c3nn[nH]n3)c12 (centres unmarked) [Example 11b, 3-Benzyl-5,7-bis[1-(1H-tetrazol-5-yl)ethoxy]4-methyl-2 H-1-benzopyran-2-one]	–	–	28	–	–
Cc1cc(=O)n(Cc2ccccc2)c2cc(OCc3nnn[nH]3)cc(OCc3nnn[nH]3)c12 [Example 18e, 1-Benzyl-5,7-bis-[(1H-tetrazol-5-yl)methoxy]-4-methyl-2(1H)-quinolinone]	–	10	13	35	–
Cc1c(Cc2ccccc2)c(=O)n(Cc2ccccc2)c2cc(OCc3nnn[nH]3)cc(OCc3nn[nH]n3)c12 [Example 8g, 5,7-Bis[(1H-tetrazol-5-yl)methoxy]-1,3-dibenzyl-4-methyl-2(1H)-quinolinone]	64	2	–	–	The stimulation (%) of Ca^2+ uptake, B (fast skeletal muscle vesicles) (SR Ca^2+-ATPase; 10 μM compound): 0%; The stimulation (%) of Ca^2+ uptake, A (ventricular myocardium vesicles) (phospholamban; 10 μM compound): 18%
Cc1c(Cc2ccccc2)c(=O)n(C)c2cc(OCc3nnn[nH]3)cc(OCc3nn[nH]n3)c12 [Example 9d, 5,7-Bis[(1H-tetrazol-5-yl)methoxy]-3-benzyl-1,4-dimethyl-2(1H)-quinolinone]	–	5	–	50	–
Cc1c(Cc2ccc([N+](=O)[O-])cc2)c(=O)oc2cc(OCc3nn[nH]n3)cc(OCc3nn[nH]n3)c12 [Example 15c, 5,7-Bis[(1H-tetrazol-5-yl)methoxy]-3-(4-nitrobenzyl)-4-methyl-2H-1-benzopyran-2-one]	37	3	–	–	–
Cc1c(Cc2ccccc2)c(=O)n(Cc2ccc(F)cc2)c2cc(OCc3nn[nH]n3)cc(OCc3nn[nH]n3)c12 [Example 13d, 3-Benzyl-5,7-Bis[(1H-tetrazol-5-yl)methoxy]-1-(4-fluorobenzyl)-4-methyl-2(1H)-quinolinone]	–	10	–	48	The stimulation (%) of Ca^2+ uptake, A (ventricular myocardium vesicles) (phospholamban; 50 μM compound): 23%
Cc1c(C2CCCC2)c(=O)oc2cc(OCc3nn[nH]n3)cc(OCc3nn[nH]n3)c12 [Example 16c, 5,7-Bis[(1H-tetrazol-5-yl)methoxy]-3-cyclopentyl-4-methyl-2H-1-benzopyran-2-one]	–	10	–	57	–
Cc1c(Cc2ccc(Cl)cc2)c(=O)oc2cc(OCc3nn[nH]n3)cc(OCc3nn[nH]n3)c12 [Example 14c, 5,7-Bis[(1H-tetrazol-5-yl)methoxy]-3-(4-chlorobenzyl)-4-methyl-2H-1-benzopyran-2-one]	25	–	–	–	The stimulation (%) of Ca^2+ uptake, A (ventricular myocardium vesicles) (phospholamban; 10 μM compound): 18%
Cc1c(Cc2ccccc2)c(=O)n(Cc2ccccc2)c2cc(OCC(=O)O)cc(OCC(=O)O)c12 [Example 12, 5,7-Bis(carboxymethoxy)-1,3-dibenzyl-4-methyl-2(1H)-quinolinone]	22	–	32	–	–
O=c1oc2cc(OCc3nn[nH]n3)cc(OCc3nn[nH]n3)c2c2c1CC(c1ccccc1)CC2 (centres unmarked) [Example 6c, 7,8,9,10-Tetrahydro-1,3-bis[(1H-tetrazol-5-yl)methoxy]-8-phenyl-6H-dibenzo[b,d]pyran-6-one]	25	0.5	–	–	–
cP226: cyclic peptide of formula (pI) wherein X is Tyr; linear CYWELEWLPCA cyclized by intramolecular disulphide bridge; PLB deactivator (disulfide 1-10 (inferred))	–	–	–	–	binding to PLB (PLB): binds to the ligand binding site of phospholamban
Cc1c(Cc2ccccc2)c(=O)oc2cc(OCc3nn[nH]n3)cc(OCc3nn[nH]n3)c12 [Example 1c, 3-Benzyl-5,7-bis[(1H-tetrazol-5-yl)methoxy]-4-methyl-2H-1-benzopyran-2-one]	–	9	–	52	–

Source: patent US6538022B1, “Compounds for deactivating phospholamban function on Ca-ATPase (phopholamban inhibitors)” (Orion Corporation, priority 1997, dated 2003)
